From PMC6154679, “Nine Different Chemical Species and Action Mechanisms of Pancreatic Lipase Ligands Screened Out from Forsythia suspensa Leaves All at One Time” (Molecules : A Journal of Synthetic Chemistry and Natural …, 2017) come the findings set out here.

The target in this assay is T1, pancreatic lipase (PL) (Sus scrofa, UniProt P00591).
T1 construct: gene PNLIP
T1 sequence (P00591 1-450): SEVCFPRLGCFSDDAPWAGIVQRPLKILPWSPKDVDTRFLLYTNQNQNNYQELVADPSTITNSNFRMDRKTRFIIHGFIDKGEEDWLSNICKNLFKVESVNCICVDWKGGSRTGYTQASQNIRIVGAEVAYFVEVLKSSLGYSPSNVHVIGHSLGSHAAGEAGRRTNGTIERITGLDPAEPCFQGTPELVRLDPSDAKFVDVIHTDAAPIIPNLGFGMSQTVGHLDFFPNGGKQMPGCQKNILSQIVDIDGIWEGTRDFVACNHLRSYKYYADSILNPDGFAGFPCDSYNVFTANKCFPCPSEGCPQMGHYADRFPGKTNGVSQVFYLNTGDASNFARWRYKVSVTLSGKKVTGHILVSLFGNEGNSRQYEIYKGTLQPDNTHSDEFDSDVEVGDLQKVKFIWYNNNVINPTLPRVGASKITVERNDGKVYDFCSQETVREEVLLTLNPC
The experiment in a line: pNPB hydrolysis assay, inhibition rate at […]. The format is biochemical. To be noted: read-out: % inhibition at 5 μg/mL.

`CCCCCCCCCCC[C@@H](C[C@@H]1OC(=O)[C@H]1CCCCCC)OC(=O)[C@H](CC(C)C)NC=O` [Orlistat]: the inhibition at 5 µg/mL was 58%.
